# According to the NIST ThermoML archive (doi:10.1021/je101130e):
# Numbers after ± are expanded uncertainties.
# Test: mn = molality of the nth substance listed, in mol/kg
# Details: 298.15 K, 101 kPa, Liquid, Vibrating tube method
compound,measurement,setting,value
ClCCl [dichloromethane] + CCOS(=O)(=O)[O-].CCn1cc[n+](C)c1,mass density,m2 = 0.003931,1316.39 ± 10 kg/m3
same,mass density,m2 = 0.1352,1316.68 ± 10 kg/m3
